We go through two molecules from US12281125B2, “Rapamycin derivatives” (NOVARTIS AG, priority 2018, dated 2025).

Assay [1] relates to mTORC1 activity, S6K1 (Thr389) in FKBP12/12.6/13/52/51 knock-out 293T cells. As to the kind of experiment: S6K1(Thr389) phosphorylation ELISA in FKBP12/12.6/13/52/51 knock-out 293T cells. The assay is classed as cell-based. The text has this:
(§1) A CRISPR/Cas9 system was used to deliver ribonucleoprotein complexes containing guide RNA (gRNA) sequences that target FKBP12
(§2) ([…], location 35620248) into 293T cells, using the Amaxa® 4D-Nucleofector™ X Kit (Lonza, V4XC-2032). Cell clones were screened by immunoblotting with anti-FKBP-specific antibodies: FKBP12 (Novus, NB300-508), FKBP12.6 (Abnova, H00002281-M01), FKBP13 (R&D Systems, MAB4356), FKBP25 (R&D Systems, MAB3955), FKBP52 (Cell signaling Technology, #11826) and FKBP51 (Cell signaling Technology, #12210). […] Quintuple FKBP12/12.6/13/52/51 knock-out and FKBP12/12.6/25/52/51 knock-out cells were generated by sequentially knocking out five FKBP genes.
(§3) WT, FKBP12 knock-out, FKBP12/12.6/13/52/51 knock-out or FKBP12/12.6/25/52/51 knock-out 293T cells were plated at a density of 30,000 cells per well in poly-D-Lysine coated 96-well plates (Corning, #354461) in Dulbecco's modified Eagle's medium (ThermoFisher, #11995-065) supplemented with 10% fetal bovine serum (ThermoFisher, #16140-071). Cells were incubated at 37° C., 5% CO2 for 48 hours until they reached ˜80% confluence. […] Media supplemented with blank Dimethyl sulfoxide (DMSO) was used as a control for both compounds. Phosphorylated amounts of S6K1 (Thr389) were detected by a sandwich ELISA kit (Cell signaling, #7063C) following the manufacture's protocol.
A general note: In an ELISA, binding on a coated surface is turned into a signal by an enzyme label.

Assay [2] addresses T1, FKBP12-rapalog-mTOR (amino acids 2019-2112) ternary complex (Homo sapiens, UniProt P42345+P62942).
T1 construct: his^6-mTOR (amino acids 2019-2112) was diluted in buffer; made in house; host or cells: E. coli
As to the kind of experiment: SPR ternary complex formation, rapalog bound to FKBP12 with mTOR. Format: binding. Particulars: rapalog bound to FKBP with mTOR, read-out: FKBP12 apparent affinity KD for ternary complex formation. Here is the method:
(§4) N-terminal avi-his6-tagged FKBP fusion proteins were expressed in E. coli and purified with nickel chromatography using standard procedures. Biotinylated his-avi-FKBPs were immobilized on a streptavidin chip using a Biacore 8K (GE Healthcare). To determine the kinetics-affinity of the rapalogs for FKBPs, rapalogs were diluted in DMSO to 50× working concentration. Next, 3.1 uLs of each rapalog solution was added to 150 uLs of buffer (50 mM Tris pH 7.5/150 mM NaCl/0.01% Tween 20/1 mM DTT) in a 384 deep well plate (greiner bio-one/78127) and mixed using a Biomek FX. The rapalog solution gradients (6 concentrations/2 fold dilutions, 3.1-100 nM or 31-1000 nM or 310-10000 nM) were then injected at 45 uL/min for 120 seconds: contact time and dissociation time was 1800 seconds in running buffer (50 mM Tris pH 7.5/150 mM NaCl/0.01% Tween 20/1 mM DTT/2% DMSO). The single-cycle kinetics data were fit to a 1:1 binding model to measure the association rate ka (1/Ms), the dissociation rate kd (1/s) and the affinity KD (M). […] 3.1 uLs of the 500 μM rapalog solutions were added to 150 uLs of the mTOR samples in a 384 deep well plate (greiner bio-one/78127) and mixed using a Biomek FX. The mTOR solution gradients were then injected at 45 uL/min for 120 seconds: contact time and dissociation time was 1800 seconds in running buffer (50 mM Tris pH 7.5/150 mM NaCl/0.01% Tween 20/1 mM DTT/2% DMSO). […]

Assay [3] has as its target T2, FKBP13-rapalog-mTOR (amino acids 2019-2112) ternary complex (Homo sapiens, UniProt P26885+P42345).
T2 construct: his^6-mTOR (amino acids 2019-2112) was diluted in buffer; made in house; host or cells: E. coli
As to the kind of experiment: SPR ternary complex formation, rapalog bound to FKBP13 with mTOR. The assay is classed as binding. To be noted: rapalog bound to FKBP with mTOR, read-out: FKBP13 apparent affinity KD for ternary complex formation. The procedure:
as §4

In assay [4] the test system is mTORC1 activity, S6K1 (Thr389) in FKBP12 knock-out 293T cells. As to the kind of experiment: S6K1(Thr389) phosphorylation ELISA in FKBP12 knock-out 293T cells. The assay is classed as cell-based. To be noted: 2 hours.
Text: as §1, §2, §3

In assay [5] the target is T3, FKBP51-rapalog-mTOR (amino acids 2019-2112) ternary complex (Homo sapiens, UniProt P42345+Q13451).
T3 construct: his^6-mTOR (amino acids 2019-2112) was diluted in buffer; made in house; host or cells: E. coli
T3 sequence (Q13451 whole entry, the tested form may be a part): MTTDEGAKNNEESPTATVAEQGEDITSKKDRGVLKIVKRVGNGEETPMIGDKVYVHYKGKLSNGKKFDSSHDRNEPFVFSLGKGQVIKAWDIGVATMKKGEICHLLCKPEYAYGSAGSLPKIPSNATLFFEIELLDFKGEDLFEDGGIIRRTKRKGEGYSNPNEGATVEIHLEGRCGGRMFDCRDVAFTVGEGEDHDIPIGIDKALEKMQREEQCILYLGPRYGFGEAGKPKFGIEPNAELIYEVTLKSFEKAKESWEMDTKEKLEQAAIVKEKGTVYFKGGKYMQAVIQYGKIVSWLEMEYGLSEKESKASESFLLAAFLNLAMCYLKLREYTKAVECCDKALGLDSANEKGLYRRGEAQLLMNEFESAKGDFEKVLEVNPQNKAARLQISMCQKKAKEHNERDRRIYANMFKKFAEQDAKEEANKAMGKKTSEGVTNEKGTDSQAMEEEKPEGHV
T3 sequence (P42345 2019-2112 limits assumed): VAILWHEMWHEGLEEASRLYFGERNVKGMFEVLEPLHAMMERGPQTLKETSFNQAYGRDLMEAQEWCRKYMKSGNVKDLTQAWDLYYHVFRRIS
As to the kind of experiment: SPR ternary complex formation, rapalog bound to FKBP51 with mTOR. The assay is classed as binding. Particulars: rapalog bound to FKBP with mTOR, read-out: FKBP51 apparent affinity KD for ternary complex formation. Here is the method: as §4

Assay [6] has as its system mTORC1 activity, S6K1 (Thr389) in FKBP12/12.6/25/52/51 knock-out 293T cells. As to the kind of experiment: S6K1(Thr389) phosphorylation ELISA in FKBP12/12.6/25/52/51 knock-out 293T cells. The assay is classed as cell-based.
Text: as §1, §2, §3

Assay [7] deals with T4, FKBP52 (Homo sapiens, UniProt Q02790).
T4 construct: made in house; host or cells: E. coli
T4 sequence (Q02790 1-459): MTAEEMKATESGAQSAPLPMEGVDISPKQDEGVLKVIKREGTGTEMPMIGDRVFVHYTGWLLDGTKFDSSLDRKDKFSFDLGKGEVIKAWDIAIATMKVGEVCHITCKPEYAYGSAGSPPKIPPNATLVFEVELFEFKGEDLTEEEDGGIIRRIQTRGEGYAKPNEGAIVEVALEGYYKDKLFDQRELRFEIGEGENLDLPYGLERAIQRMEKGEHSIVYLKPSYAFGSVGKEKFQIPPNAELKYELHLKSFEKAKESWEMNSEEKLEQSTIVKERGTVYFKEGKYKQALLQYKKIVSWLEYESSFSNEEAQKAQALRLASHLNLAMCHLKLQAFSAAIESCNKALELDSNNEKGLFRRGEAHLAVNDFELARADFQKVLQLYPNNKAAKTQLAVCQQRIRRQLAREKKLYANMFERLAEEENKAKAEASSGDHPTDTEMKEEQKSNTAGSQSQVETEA
As to the kind of experiment: SPR assay, binding affinity to FKBP52. Particulars: equilibrium dissociation constant. Here is the method:
N-terminal avi-his6-tagged FKBP fusion proteins were expressed in E. coli and purified with nickel chromatography using standard procedures. Biotinylated his-avi-FKBPs were immobilized on a streptavidin chip using a Biacore 8K (GE Healthcare). To determine the kinetics-affinity of the rapalogs for FKBPs, rapalogs were diluted in DMSO to 50× working concentration. Next, 3.1 uLs of each rapalog solution was added to 150 uLs of buffer (50 mM Tris pH 7.5/150 mM NaCl/0.01% Tween 20/1 mM DTT) in a 384 deep well plate (greiner bio-one/78127) and mixed using a Biomek FX. The rapalog solution gradients (6 concentrations/2 fold dilutions, 3.1-100 nM or 31-1000 nM or 310-10000 nM) were then injected at 45 uL/min for 120 seconds: contact time and dissociation time was 1800 seconds in running buffer (50 mM Tris pH 7.5/150 mM NaCl/0.01% Tween 20/1 mM DTT/2% DMSO). The single-cycle kinetics data were fit to a 1:1 binding model to measure the association rate ka (1/Ms), the dissociation rate kd (1/s) and the affinity KD (M). […] 3.1 uLs of the 500 μM rapalog solutions were added to 150 uLs of the mTOR samples in a 384 deep well plate (greiner bio-one/78127) and mixed using a Biomek FX. The mTOR solution gradients were then injected at 45 uL/min for 120 seconds: contact time and dissociation time was 1800 seconds in running buffer (50 mM Tris pH 7.5/150 mM NaCl/0.01% Tween 20/1 mM DTT/2% DMSO). The single-cycle kinetics data was fit to a 1:1 binding model to measure the association rate ka (1/Ms), the dissociation rate kd (1/s) and the apparent affinity KD (M) for ternary complex formation.
The equilibrium dissociation constants (KD) to FKBP12, FKBP51, and FKBP52 are shown below in Table 6.
In general terms: Surface plasmon resonance follows binding to a sensor surface in real time, without labels.

Assay [8] concerns the target T5, FKBP12.6-rapalog-mTOR (amino acids 2019-2112) ternary complex (Homo sapiens, UniProt P42345+P68106).
T5 construct: his^6-mTOR (amino acids 2019-2112) was diluted in buffer; made in house; host or cells: E. coli
As to the kind of experiment: SPR ternary complex formation, rapalog bound to FKBP12.6 with mTOR. Format: binding. To be noted: rapalog bound to FKBP with mTOR, read-out: FKBP12.6 apparent affinity KD for ternary complex formation. The procedure: as §4

Structures are written as SMILES.

T5 sequence (P68106 whole entry, the tested form may be a part): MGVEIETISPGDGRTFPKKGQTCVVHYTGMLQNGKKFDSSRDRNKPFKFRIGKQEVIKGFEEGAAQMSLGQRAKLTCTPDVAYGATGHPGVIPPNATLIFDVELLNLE
T5 sequence (P42345 2019-2112 limits assumed): as the sequence (P42345 2019-2112 limits assumed) above
T2 sequence (P26885 22-142): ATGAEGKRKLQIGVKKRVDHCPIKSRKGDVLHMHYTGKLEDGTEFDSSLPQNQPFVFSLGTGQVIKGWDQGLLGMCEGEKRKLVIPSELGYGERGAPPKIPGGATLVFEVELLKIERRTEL
T2 sequence (P42345 2019-2112 limits assumed): as the sequence (P42345 2019-2112 limits assumed) above
T1 sequence (P62942 whole entry, the tested form may be a part): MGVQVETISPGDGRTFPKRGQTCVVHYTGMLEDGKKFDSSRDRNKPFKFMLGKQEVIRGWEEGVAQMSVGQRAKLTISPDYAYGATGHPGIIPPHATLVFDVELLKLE
T1 sequence (P42345 2019-2112 limits assumed): as the sequence (P42345 2019-2112 limits assumed) above

For `CO[C@@H]1C[C@H](C[C@@H](C)[C@@H]2CC[C@H](C)/C=C(\C)[C@@H](O)[C@@H](OC)C(=O)[C@H](C)C[C@H](C)/C=C/C=C/C=C(\C)[C@@H](NS(C)(=O)=O)C[C@@H]3CC[C@@H](C)[C@@](O)(O3)C(=O)C(=O)N3CCCC[C@H]3C(=O)O2)CC[C@H]1O` [Compound 2], the “inhibitory effect (potency) on S6K1 (Thr389), in words” value in assay [1] is listed as “efficacious in inhibiting S6K1 (Thr389)”; in assay [6], “neither RAD001 nor Compound 2 were efficacious”. The “inhibition of S6K1 (Thr389)” value in assay [1] (at the highest tested concentration) was approximately 90%. Further, the Kd in assay [2] was found to be 25 nM; in assay [3] it was 127 nM; in assay [5] it was 52 nM; in assay [7] it was 374 nM; in assay [8] it was 55 nM. Moreover, the “de-phosphorylation of S6K1(Thr389)” value in assay [4] was approximately 70%.

As to `CO[C@H]1C[C@@H]2CC[C@@H](C)[C@@](O)(O2)C(=O)C(=O)N2CCCC[C@H]2C(=O)O[C@H]([C@H](C)C[C@@H]2CC[C@@H](OCCO)[C@H](OC)C2)CC(=O)[C@H](C)/C=C(\C)[C@@H](O)[C@@H](OC)C(=O)[C@H](C)C[C@H](C)/C=C/C=C/C=C/1C` [RAD001, everolimus, reference compound], the “inhibitory effect (potency) on S6K1 (Thr389), in words” value is listed as “lost almost all it potency” in assay [1] and “neither RAD001 nor Compound 2 were efficacious” in assay [6]. The Kd was determined as 21 nM in assay [2]; 21 nM in assay [3]; 348 nM in assay [5]; 1770 nM in assay [7]; 47 nM in assay [8]. Also, the “de-phosphorylation of S6K1(Thr389)” value in assay [4] is approximately 40%.
